Earlier results, collected in patent publication US20250295639A1, “METHODS FOR TREATING HEART DISEASES” (Cytokinetics, Incorporated, priority 2024, published 2025).

System: patients with oHCM
Conditions: cited from earlier work

CC(C)n1c(=O)cc(N[C@@H](C)c2ccccc2)[nH]c1=O [mavacamten]
benefit (pVO2, exercise duration, peak METs) in patients receiving beta blockers (EXPLORER-HCM): attenuation of benefit | peak oxygen uptake (pVO2) and other CPET parameters (patients with oHCM): has shown efficacy
